Measured values reported in US20260365646A1, “AKT1 MODULATORS” (Alterome Therapeutics, Inc., priority 2022, published 2026).

Each compound was assayed against T1, full length AKT E17K (Homo sapiens, UniProt P31749, E17K) (assay: NanoBRET Target Engagement (TE) Intracellular Kinase Assay). Conditions: not given.
T1 construct: host or cells: HEK-293 (ATCC CRL-1573)
Type: cell-based
In short: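 Live-cell BRET assay: cells expressing NanoLuc-fused full-length AKT E17K incubated 2 h with tracer at target-optimized concentration plus compound. BRET read at 450 nm donor/600 nm acceptor with extracellular NanoLuc inhibitor. EC50 from sigmoidal variable-slope fit of tracer displacement.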

T1 sequence (P31749 whole entry E17K): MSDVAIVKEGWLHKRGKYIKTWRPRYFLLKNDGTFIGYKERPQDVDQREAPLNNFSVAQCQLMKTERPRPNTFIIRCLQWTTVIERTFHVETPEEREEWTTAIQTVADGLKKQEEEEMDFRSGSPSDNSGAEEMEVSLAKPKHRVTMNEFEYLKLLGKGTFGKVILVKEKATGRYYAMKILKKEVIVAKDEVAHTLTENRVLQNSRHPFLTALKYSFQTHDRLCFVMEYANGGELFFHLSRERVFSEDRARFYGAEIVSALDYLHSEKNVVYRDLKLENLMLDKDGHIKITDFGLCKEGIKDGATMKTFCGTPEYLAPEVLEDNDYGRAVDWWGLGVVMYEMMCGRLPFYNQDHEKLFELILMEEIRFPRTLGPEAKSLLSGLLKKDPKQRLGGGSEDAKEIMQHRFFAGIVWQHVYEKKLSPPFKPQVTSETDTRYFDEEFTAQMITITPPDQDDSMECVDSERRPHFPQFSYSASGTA

EC50	SMILES
15 to 60 nM	COc1c(N2CCN(Cc3ccc(-n4c(-c5cccnc5N)nc5ccc(-c6ccccc6)nc54)cc3)C[C@@H]2C)c(=O)c1=O [Example 36, (S)-3-(4-(4-(2-(2-Aminopyridin-3-yl)-5-phenyl-3H-imidazo[4,5-b]pyridin-3-yl)benzyl)-2-methylpiperazin-1-yl)-4-methoxycyclobut-3-ene-1,2-dione]
15 to 60 nM	COc1c(N2CCCC3(CCN(Cc4ccc(-n5c(-c6cccnc6N)nc6ccc(-c7ccccc7)nc65)cc4)C3)C2)c(=O)c1=O (stereo not shown) [Example 58, 3-(2-(4-(2-(2-Aminopyridin-3-yl)-5-phenyl-3H-imidazo[4,5-b]pyridin-3-yl)benzyl)-2,7-diazaspiro[4.5]decan-7-yl)-4-methoxycyclobut-3-ene-1,2-dione]
15 to 60 nM	COc1c(NC2CCN(Cc3ccc(-n4c(-c5cccnc5N)nc5cccnc54)cc3)CC2)c(=O)c1=O [Example 3, 3-((1-(4-(2-(2-Aminopyridin-3-yl)-3H-imidazo[4,5-b]pyridin-3-yl)benzyl)piperidin-4-yl)amino)-4-methoxycyclobut-3-ene-1,2-dione]
15 to 60 nM	[2H]C([2H])([2H])Oc1c(N2CCN(Cc3ccc(-n4c(-c5cccnc5N)nc5ccc(-c6ccccc6)nc54)cc3)CC2)c(=O)c1=O [Example 23, 3-(4-(4-(2-(2-Aminopyridin-3-yl)-5-phenyl-3H-imidazo[4,5-b]pyridin-3-yl)benzyl)piperazin-1-yl)-4-(methoxy-d3)cyclobut-3-ene-1,2-dione]
> 600 nM	COc1c(N2CCN(Cc3ccc(-n4c(-c5cccnc5N)nc5cccnc54)cc3)CC2)c(=O)c1=O [Example 1, 3-(4-(4-(2-(2-Aminopyridin-3-yl)-3H-imidazo[4,5-b]pyridin-3-yl)benzyl)piperazin-1-yl)-4-methoxycyclobut-3-ene-1,2-dione]
60 to 600 nM	COc1c(N2CCN(Cc3ccc(-n4c(-c5cccnc5N)nc5ccc(-c6ccccc6)nc54)cc3)C[C@H]2C)c(=O)c1=O [Example 67, (R)-3-(4-(4-(2-(2-aminopyridin-3-yl)-5-phenyl-3H-imidazo[4,5-b]pyridin-3-yl)benzyl)-2-methylpiperazin-1-yl)-4-methoxycyclobut-3-ene-1,2-dione]
15 to 60 nM	COc1c(N2CCC3(CCN(Cc4ccc(-n5c(-c6cccnc6N)nc6ccc(-c7ccccc7)nc65)cc4)CC3)CC2)c(=O)c1=O [Example 99, 3-(9-(4-(2-(2-aminopyridin-3-yl)-5-phenyl-3H-imidazo[4,5-b]pyridin-3-yl)benzyl)-3,9-diazaspiro[5.5]undecan-3-yl)-4-methoxycyclobut-3-ene-1,2-dione]
15 to 60 nM	COc1c(N2CCC3(CN(Cc4ccc(-n5c(-c6cccnc6N)nc6ccc(-c7ccccc7)nc65)cc4)C3)C2)c(=O)c1=O [Example 42, 3-(2-(4-(2-(2-Aminopyridin-3-yl)-5-phenyl-3H-imidazo[4,5-b]pyridin-3-yl)benzyl)-2,6-diazaspiro[3.4]octan-6-yl)-4-methoxycyclobut-3-ene-1,2-dione]
> 600 nM	Nc1ncccc1-c1nc2ccc(-c3ccccc3)nc2n1-c1ccc(CN2CCC(N3CCCOc4c3c(=O)c4=O)CC2)cc1 [Example 84, 6-(1-(4-(2-(2-aminopyridin-3-yl)-5-phenyl-3H-imidazo[4,5-b]pyridin-3-yl)benzyl)piperidin-4-yl)-2-oxa-6-azabicyclo[5.2.0]non-1(7)-ene-8,9-dione]
60 to 600 nM	COc1c(N2CCCC3(CN(Cc4ccc(-n5c(-c6cccnc6N)nc6ccc(-c7ccccc7)nc65)cc4)C3)C2)c(=O)c1=O [Example 65, 3-(2-(4-(2-(2-aminopyridin-3-yl)-5-phenyl-3H-imidazo[4,5-b]pyridin-3-yl)benzyl)-2,6-diazaspiro[3.5]nonan-6-yl)-4-methoxycyclobut-3-ene-1,2-dione]
15 to 60 nM	COc1c(N2CCCC3(CCN(Cc4ccc(-n5c(-c6cccnc6N)nc6ccc(-c7ccccc7)nc65)cc4)CC3)C2)c(=O)c1=O [Example 31, 3-(9-(4-(2-(2-Aminopyridin-3-yl)-5-phenyl-3H-imidazo[4,5-b]pyridin-3-yl)benzyl)-2,9-diazaspiro[5.5]undecan-2-yl)-4-methoxycyclobut-3-ene-1,2-dione]
60 to 600 nM	CCOc1c(N2CCN(Cc3ccc(-n4c(-c5cccnc5N)nc5ccc(-c6ccccc6)nc54)cc3)CC2)c(=O)c1=O [Example 24, 3-(4-(4-(2-(2-Aminopyridin-3-yl)-5-phenyl-3H-imidazo[4,5-b]pyridin-3-yl)benzyl)piperazin-1-yl)-4-ethoxycyclobut-3-ene-1,2-dione]
60 to 600 nM	COc1c(N2CCN(Cc3ccc(-n4c(-c5cccnc5N)nc5ccc(-c6ccccc6)nc54)cc3)C[C@H]2CO)c(=O)c1=O [Example 80, (S)-3-(4-(4-(2-(2-aminopyridin-3-yl)-5-phenyl-3H-imidazo[4,5-b]pyridin-3-yl)benzyl)-2-(hydroxymethyl)piperazin-1-yl)-4-methoxycyclobut-3-ene-1,2-dione]
> 600 nM	CN(c1c(S)c(=O)c1=O)C1CCN(Cc2ccc(-n3c(-c4cccnc4N)nc4ccc(-c5ccccc5)nc43)cc2)CC1 [Example 46, 3-((1-(4-(2-(2-aminopyridin-3-yl)-5-phenyl-3H-imidazo[4,5-b]pyridin-3-yl)benzyl)piperidin-4-yl)(methyl)amino)-4-mercaptocyclobut-3-ene-1,2-dione]
15 to 60 nM	COc1c(N2CCN(Cc3ccc(-n4c(-c5cccnc5N)nc5ccc(-c6cccc(NC(C)=O)c6)nc54)cc3)CC2)c(=O)c1=O [Example 7, N-(3-(2-(2-Aminopyridin-3-yl)-3-(4-((4-(2-methoxy-3,4-dioxocyclobut-1-en-1-yl)piperazin-1-yl)methyl)phenyl)-3H-imidazo[4,5-b]pyridin-5-yl)phenyl)acetamide]
60 to 600 nM	Nc1ncccc1-c1nc2ccc(-c3ccccc3)nc2n1-c1ccc(CN2CCC(N3CCCSc4c3c(=O)c4=O)CC2)cc1 [Example 85, 6-(1-(4-(2-(2-aminopyridin-3-yl)-5-phenyl-3H-imidazo[4,5-b]pyridin-3-yl)benzyl)piperidin-4-yl)-2-thia-6-azabicyclo[5.2.0]non-1(7)-ene-8,9-dione]

Same assay, conditions: read-out: NanoBRET AKT1E17K EC50; HEK-293 cells transfected with NanoLuc-AKT E17K; competitive displacement of NanoBRET tracer; 2 hr equilibration; 10-point 3-fold dilution

EC50	SMILES
< 15 nM	COc1c(N2CC3CCC2CN3Cc2ccc(-n3c(-c4cccnc4N)nc4ccc(-c5ccccc5)nc43)cc2)c(=O)c1=O (stereo not shown) [Example 63, 3-(5-(4-(2-(2-aminopyridin-3-yl)-5-phenyl-3H-imidazo[4,5-b]pyridin-3-yl)benzyl)-2,5-diazabicyclo[2.2.2]octan-2-yl)-4-methoxycyclobut-3-ene-1,2-dione]
< 15 nM	[2H]C([2H])([2H])N(c1c(OC)c(=O)c1=O)C1CCN(Cc2ccc(-n3c(-c4cccnc4N)nc4ccc(-c5ccccc5)nc43)cc2)CC1 [Example 100, 3-((1-(4-(2-(2-aminopyridin-3-yl)-5-phenyl-3H-imidazo[4,5-b]pyridin-3-yl)benzyl)piperidin-4-yl)(methyl-d3)amino)-4-methoxycyclobut-3-ene-1,2-dione]
< 15 nM	[2H]C([2H])([2H])Oc1c(NC2CCN(Cc3ccc(-n4c(-c5cccnc5N)nc5ccc(-c6ccccc6)nc54)cc3)CC2)c(=O)c1=O [Example 13, 3-((1-(4-(2-(2-Aminopyridin-3-yl)-5-phenyl-3H-imidazo[4,5-b]pyridin-3-yl)benzyl)piperidin-4-yl)amino)-4-(methoxy-d3)cyclobut-3-ene-1,2-dione]
< 15 nM	COc1c(N[C@H]2CCN(Cc3ccc(-n4c(-c5cccnc5N)nc5ccc(-c6ccccc6)nc54)cc3)C2)c(=O)c1=O [Example 30, (S)-3-((1-(4-(2-(2-Aminopyridin-3-yl)-5-phenyl-3H-imidazo[4,5-b]pyridin-3-yl)benzyl)pyrrolidin-3-yl)amino)-4-methoxycyclobut-3-ene-1,2-dione]
< 15 nM	CCN(c1c(OC)c(=O)c1=O)C1CCN(Cc2ccc(-n3c(-c4cccnc4N)nc4ccc(-c5ccccc5)nc43)cc2)CC1 [Example 91, 3-((1-(4-(2-(2-aminopyridin-3-yl)-5-phenyl-3H-imidazo[4,5-b]pyridin-3-yl)benzyl)piperidin-4-yl)(ethyl)amino)-4-methoxycyclobut-3-ene-1,2-dione]
< 15 nM	COc1c(N2CCC3(CC2)CN(Cc2ccc(-n4c(-c5cccnc5N)nc5ccc(-c6ccccc6)nc54)cc2)C3)c(=O)c1=O [Example 60, 3-(2-(4-(2-(2-Aminopyridin-3-yl)-5-phenyl-3H-imidazo[4,5-b]pyridin-3-yl)benzyl)-2,7-diazaspiro[3.5]nonan-7-yl)-4-methoxycyclobut-3-ene-1,2-dione]
< 15 nM	CSc1c(N2C[C@H]3CN(Cc4ccc(-n5c(-c6cccnc6N)nc6ccc(-c7ccccc7)nc65)cc4)C[C@H]3C2)c(=O)c1=O [Example 87, 3-((3aR,6aS)-5-(4-(2-(2-aminopyridin-3-yl)-5-phenyl-3H-imidazo[4,5-b]pyridin-3-yl)benzyl)hexahydropyrrolo[3,4-c]pyrrol-2(1H)-yl)-4-(methylthio)cyclobut-3-ene-1,2-dione]
< 15 nM	COc1c(N2C[C@@H]3C[C@H]2CN3Cc2ccc(-n3c(-c4cccnc4N)nc4ccc(-c5ccccc5)nc43)cc2)c(=O)c1=O [Example 75, 3-((1S,4S)-5-(4-(2-(2-aminopyridin-3-yl)-5-phenyl-3H-imidazo[4,5-b]pyridin-3-yl)benzyl)-2,5-diazabicyclo[2.2.1]heptan-2-y1)-4-methoxycyclobut-3-ene-1,2-dione]
< 15 nM	COc1c(NC2CCC3(CC2)CN(Cc2ccc(-n4c(-c5cccnc5N)nc5ccc(-c6ccccc6)nc54)cc2)C3)c(=O)c1=O [Example 98, 3-((2-(4-(2-(2-aminopyridin-3-yl)-5-phenyl-3H-imidazo[4,5-b]pyridin-3-yl)benzyl)-2-azaspiro[3.5]nonan-7-yl)amino)-4-methoxycyclobut-3-ene-1,2-dione]
